One molecule from article PMC9569971, “New Oxazolo[5,4-d]pyrimidines as Potential Anticancer Agents: Their Design, Synthesis, and In Vitro Biological Activity Research” (International Journal of Molecular Sciences, 2022) can be followed below.

Experiment [1] relates to metastatic colon adenocarcinoma (LoVo). As to the kind of experiment: MTT viability assay, LoVo. It is filed as cell-based, human. The protocol: When the confluence was greater than 70%, adherent cell lines were detached from the bottle surface with a TrypLE solution and then used in assays or reduced. The cells were collected into centrifuge tubes and centrifuged at 1000× g for 5 min at room temperature. The supernatant was removed to dry. The cell pellets were then resuspended in an appropriate medium. The cells were counted using a Bürker chamber and resuspended in 96-well plates to a cell density of 10,000 cells per well for MTT assay. For the rhodamine accumulation test and the detection of apoptosis assay, cells were seeded at a density of 30,000 per well. In the migration assay, cells were seeded at a density of 20,000 per well, and monolayer formation was awaited.
In this study, normal human dermal fibroblasts (NHDFs), breast cancer cells (MCF7), human lung adenocarcinoma cells (A549), murine fibroblasts (L929), colon adenocarcinoma cells (HT29), and colorectal adenocarcinoma cells (LoVo) were used. All cell lines were cultured in the recommended media. […] The human lung adenocarcinoma cell line A549 and breast cancer cell line MCF-7 were obtained from the ECACC. These cell lines were cultured in Eagle’s minimal essential medium (MEM). Murine fibroblast L929 (Sigma-Aldrich, Merck Group, Headquarters, Darmstadt, Germany; the European Collection of Authenticated Cell Cultures—ECACC) cells were grown in DMEM. […] All media were supplemented with 10% FBS and 100 µg/mL of penicillin–streptomycin.
All compounds were dissolved in DMSO and the reference drugs were dissolved in physiological saline to concentrations of 10 mM. Concentrations from 1 to 500 μM in the media recommended for the cell lines were prepared for the tests.
All of the synthesized derivatives were evaluated via the MTT assay. All cell lines were seeded into 96-well plates at a density of 10,000 cells per well. To allow the cells to adhere to the surface of the plates, they were incubated overnight before the application of the test compounds. […] The tests were performed for concentrations of 1, 5, 10, 25, 50, 100, 250, and 500 μM. The solutions of the test compounds were removed from the culture on the 96-well plates. […] The supernatant was then removed. The violet crystal was dissolved in isopropanol for 30 min by shaking. Absorbance was measured at 570 nm.
Biological assays were performed in three independent replicates, and each replicate used four samples. Three repetitions were made for the ELISA determinations. For the assessment of cytotoxicity, mathematical models were developed using the GraphPad PRISM software, based on which CC50 was determined. The values of CC50 were estimated based on nonlinear regression using the dependence of the biological effect on the molar concentrations of the compounds (four-parameter logistic model with Hill slope).
A general note: Formazan colour is commonly taken as a measure of viable cells.

Experiment [2] relates to HT29 primary colon adenocarcinoma cells. The experiment can be described thus: Detection of apoptosis (Annexin V FITC / propidium iodide). It is filed as cell-based, human. Further details: unit not given here. The following applies: 24 h. An outline of the steps: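 After 24 h growth at 30,000 cells/well, HT29 cells were treated with compound at 1, 2, 5 and 10 µM for 24 h. They were then stained with Annexin V-FITC/propidium iodide in PBS with Mg²⁺/Ca²⁺ for 20 min at 37 °C.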

Experiment [3] relates to p53. The experiment can be described thus: p53 Human ELISA Kit, HT29 lysate. It is filed as cell-based. The following applies: lysate of HT29 cells treated with 3g; SD ±0.97. The protocol:
The assay was performed on a lysate of the HT29 colon adenocarcinoma cell line treated with compound 3g. The microwells of the 96-well plate were washed 2 times with approximately 400 µL of washing buffer per well. The washing buffer was left in the wells for approximately 15 s prior to aspiration. Care was taken not to scratch the surface of the microwells. After the final rinsing step, the wells were emptied. An absorbent swab was used to remove excess wash buffer. Standard dilutions were applied to the microwell plate. Two rows of human p53 standard were prepared at dilutions ranging from 50.00 to 0.78 U/mL. […] The color change was monitored with an ELISA measured at 620 nm. The colored product was formed in proportion to the quantity of human p53 protein present in the sample and the standard. […] The results were read immediately after the addition of the enzyme stop solution. Absorbance was measured with a spectrophotometer at 450 nm. A standard curve was prepared from 7 dilutions of the human p53 standard from which the values for compound 3g were read.
Biological assays were performed in three independent replicates, and each replicate used four samples. […] For the assessment of cytotoxicity, mathematical models were developed using the GraphPad PRISM software, based on which CC50 was determined. […]

The term CC50 denotes the concentration giving 50% cytotoxicity.

As for `Cc1noc(N)c1-c1nc2c(NCCCN(C)C)ncnc2o1` [Compound 3g, 2-(5-Amino-3-methylisoxazol-4-yl)-7-N-[3-(N,N-dimethylamino)propyl]aminooxazolo[5,4-d]pyrimidine], the “SI (selectivity index)” value in experiment [1] (CC50 NHDF / CC50 LoVo) was 0.695. Further, in experiment [1] (Homo sapiens, LoVo, MTT, tested 1–500 µM), the CC50 is 224 ± 17.1 µM. In addition, the apoptosis mean came to 3.74 in experiment [2] (1 μM), 9.72 in experiment [2] (2 μM), 51.54 in experiment [2] (5 μM) and 45.24 in experiment [2] (10 μM). The late apoptosis mean in experiment [2] (1 μM) was 8.08; in experiment [2] (2 μM), 9.30; in experiment [2] (5 μM), 23.48; in experiment [2] (10 μM), 29.23. Also, the necrosis mean in experiment [2] (1 μM) was determined as 11.28; in experiment [2] (2 μM), 6.34; in experiment [2] (5 μM) it was 1.18; in experiment [2] (10 μM), 0.90. Moreover, the “percent live (viable) cells” value in experiment [2] (1 μM) is listed as 76.90; in experiment [2] (2 μM), 74.65; in experiment [2] (5 μM) it was 23.81; in experiment [2] (10 μM), 24.62. For the same molecule, the p53 concentration in experiment [3] was 4.22 [U/mL].
